Results published in ChEMBL document CHEMBL1131722, “P1, P2'-linked macrocyclic amine derivatives as matrix metalloproteinase inhibitors” (Bioorg Med Chem Lett, 1999).

Key:
Stromelysin-1 = Stromelysin-1 (Homo sapiens, UniProt P08254); assay: Inhibition of Matrix metalloprotease-3 (MMP-3)
[1] = target: Matrix metalloproteinase-9 (Homo sapiens, UniProt P14780); assay: Inhibition of Matrix metalloprotease-9 (MMP-9)
Interstitial collagenase = target: T1, Interstitial collagenase (Homo sapiens, UniProt P03956); assay: Inhibition of Matrix metalloprotease-1 (MMP-1)
T1 sequence (P03956 whole entry): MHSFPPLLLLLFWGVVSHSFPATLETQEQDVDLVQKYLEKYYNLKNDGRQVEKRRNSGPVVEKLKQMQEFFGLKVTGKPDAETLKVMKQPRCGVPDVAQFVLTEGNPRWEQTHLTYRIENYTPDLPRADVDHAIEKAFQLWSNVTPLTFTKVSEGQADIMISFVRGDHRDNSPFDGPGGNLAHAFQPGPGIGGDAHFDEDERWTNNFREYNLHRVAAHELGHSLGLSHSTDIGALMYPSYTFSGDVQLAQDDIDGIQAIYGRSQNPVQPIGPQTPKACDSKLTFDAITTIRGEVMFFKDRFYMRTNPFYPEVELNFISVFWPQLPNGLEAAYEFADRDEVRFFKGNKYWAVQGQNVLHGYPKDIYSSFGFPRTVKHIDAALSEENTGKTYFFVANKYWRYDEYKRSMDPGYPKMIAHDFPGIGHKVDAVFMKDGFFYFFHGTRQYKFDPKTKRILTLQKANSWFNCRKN

Neutrophil collagenase = Neutrophil collagenase (Homo sapiens, UniProt P22894); assay: Inhibition of Matrix metalloprotease-8 (MMP-8)
Sequence of Neutrophil collagenase (P22894 whole entry): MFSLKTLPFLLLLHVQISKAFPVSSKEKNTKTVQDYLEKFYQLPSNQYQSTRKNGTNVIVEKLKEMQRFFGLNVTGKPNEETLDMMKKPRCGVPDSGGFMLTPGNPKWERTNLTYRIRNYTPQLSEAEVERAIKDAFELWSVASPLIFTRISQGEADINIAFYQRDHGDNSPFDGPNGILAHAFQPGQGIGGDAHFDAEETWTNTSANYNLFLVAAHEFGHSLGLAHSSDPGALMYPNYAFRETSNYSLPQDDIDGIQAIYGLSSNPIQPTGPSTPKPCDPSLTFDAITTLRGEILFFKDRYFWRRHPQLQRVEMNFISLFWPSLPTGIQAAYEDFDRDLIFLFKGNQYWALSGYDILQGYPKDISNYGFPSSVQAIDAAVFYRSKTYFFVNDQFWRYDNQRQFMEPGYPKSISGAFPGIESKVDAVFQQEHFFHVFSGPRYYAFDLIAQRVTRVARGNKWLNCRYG

Sequence of Stromelysin-1 (P08254 whole entry): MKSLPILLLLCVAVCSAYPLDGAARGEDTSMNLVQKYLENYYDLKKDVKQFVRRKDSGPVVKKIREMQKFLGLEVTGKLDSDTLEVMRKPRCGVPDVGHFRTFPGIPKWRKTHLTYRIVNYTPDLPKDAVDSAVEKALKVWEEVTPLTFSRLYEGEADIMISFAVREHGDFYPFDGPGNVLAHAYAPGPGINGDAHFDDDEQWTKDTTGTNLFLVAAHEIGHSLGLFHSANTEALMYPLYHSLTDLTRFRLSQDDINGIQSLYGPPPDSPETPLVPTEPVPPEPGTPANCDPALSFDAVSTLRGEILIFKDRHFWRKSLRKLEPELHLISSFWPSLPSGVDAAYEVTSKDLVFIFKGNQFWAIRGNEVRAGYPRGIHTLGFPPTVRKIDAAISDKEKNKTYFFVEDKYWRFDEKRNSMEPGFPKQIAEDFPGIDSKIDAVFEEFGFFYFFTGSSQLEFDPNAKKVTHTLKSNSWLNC
Sequence of Matrix metalloproteinase-9 (P14780 whole entry): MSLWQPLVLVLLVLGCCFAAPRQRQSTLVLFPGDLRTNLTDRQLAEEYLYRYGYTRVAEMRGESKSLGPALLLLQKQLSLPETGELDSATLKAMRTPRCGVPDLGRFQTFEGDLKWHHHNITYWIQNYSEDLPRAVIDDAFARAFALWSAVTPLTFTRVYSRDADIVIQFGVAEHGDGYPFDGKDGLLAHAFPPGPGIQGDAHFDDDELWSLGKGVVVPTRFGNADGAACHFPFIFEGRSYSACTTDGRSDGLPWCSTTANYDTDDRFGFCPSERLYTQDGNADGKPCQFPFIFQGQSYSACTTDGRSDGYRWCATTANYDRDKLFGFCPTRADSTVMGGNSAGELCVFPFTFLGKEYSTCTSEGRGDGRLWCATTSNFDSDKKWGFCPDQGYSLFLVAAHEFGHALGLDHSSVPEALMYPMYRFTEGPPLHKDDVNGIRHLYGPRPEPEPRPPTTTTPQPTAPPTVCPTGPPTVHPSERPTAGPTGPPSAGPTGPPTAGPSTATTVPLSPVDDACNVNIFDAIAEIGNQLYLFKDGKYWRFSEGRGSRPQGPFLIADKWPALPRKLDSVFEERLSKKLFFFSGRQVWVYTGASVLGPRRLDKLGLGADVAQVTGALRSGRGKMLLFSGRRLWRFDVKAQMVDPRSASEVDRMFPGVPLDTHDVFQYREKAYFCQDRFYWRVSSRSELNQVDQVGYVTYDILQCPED

SMILES	Ki (Stromelysin-1) [nM]	Ki [1] [nM]	Ki (Interstitial collagenase) [nM]	Ki (Neutrophil collagenase) [nM]
CNC(=O)[C@@H]1CCCN(S(=O)(=O)c2ccccc2)CCCCO[C@H](C(=O)NO)[C@@H](CCCc2ccccc2)C(=O)N1		2	110	
CNC(=O)[C@@H]1CCCN(C(=O)OC(C)(C)C)CCCCO[C@H](C(=O)NO)[C@@H](CCCc2ccccc2)C(=O)N1	373	19	1070	13
CNC(=O)[C@@H]1CCCNCCCCO[C@H](C(=O)NO)[C@@H](CCCc2ccccc2)C(=O)N1	265	21	496	4

Second part, the compound after the results:

Ki (Stromelysin-1) [nM]	Ki [1] [nM]	Ki (Interstitial collagenase) [nM]	Ki (Neutrophil collagenase) [nM]	SMILES
38	6	248		CNC(=O)[C@@H]1CCCN(C(C)=O)CCCCO[C@H](C(=O)NO)[C@@H](CCCc2ccccc2)C(=O)N1
267	13	440	7	CNC(=O)[C@@H]1CCCN(C(C)=O)CC(C)CO[C@H](C(=O)NO)[C@@H](CCCc2ccccc2)C(=O)N1 (some centres not stated)
